Results published in patent publication US20240041827A1, “COMPOSITIONS FOR THE TREATMENT OF FAT RELATED CONDITIONS AND DISORDERS” (priority 2020, published 2024).
Where two headings read alike, the source gives them in different places.

System: human visceral preadipocytes
Assay: cells
Conditions: for IC50: Homo sapiens
Experimental: Human visceral preadipocytes were seeded in 96-well white clear bottom plates at 10,000 cells per well in 100 μl pre-adipocyte medium and incubated overnight at 37° C. 5% CO2. On the following day, adipogenic differentiation was induced by addition of 100 μl/well differentiation medium and incubation continued for 5 days. Adipogenic differentiation was verified by microscopic evaluation, addition of adipored reagents and fluorescent measurement at Ex485 nm/Em572 nm. […] Staurosporine (1 μM) and 0.2% DMSO were used as controls. Plates were incubated at 37° C. 5% CO2 for 2, 6 and 24 hours. Following incubation, cytotoxicity was measured using Cell Titer Glo 2.0 (Promega).
Test Item RZL-12 (1-300 μM) was prepared on the day of the testing as 150 mM stock solutions in DMSO. The 150 mM represents a 500×stock of the highest desired tested concentration. The 150 mM stock solution was first serially diluted in DMSO to acquire 500×stock solutions for each of the RZL-012 concentrations. The 500×stock solutions were then diluted 1:25 in medium to acquire 20×intermediate stock solutions. Finally, the 20×intermediate stock solutions were further diluted 1:20 in the assay (on the plate) that included seeded cells.
The 600 μM represents a 20× stock of the highest desired tested concentration. […] Finally, the 20×intermediate stock solutions were further diluted 1:20 in the assay plate that included seeded cells.
Human visceral pre-adipocytes (HPrAD-vis): HPrAD-vis cells (Lonza cat #PT-5005) were thawed at 37° C. and transferred into 50 ml tubes containing pre-adipocytes PGM-2 growth medium (PBM-2, 10% FBS, 1-glutamine, GA-1000). Cells were centrifuged at 300 g for 10 minutes, the supernatant was removed (Leaving about 1 ml of wash medium for not disrupting the cells) and 2 ml fresh PGM-2 medium was added. After resuspension, cells were counted and seeded in T-75 and T25 flasks at a density of 9,000 cells/cm^2 ([…], 225,000 cells/T25 flask). Medium was changed every 2-3 days until reached confluence of 70%.
Cells were sub-cultured only once, as soon as they reached 70% confluence. For this purpose, the culture medium of each flask was removed and cells were washed once with 5 ml PBS. The flask was shaken to ensure that the entire surface was covered and the PBS was removed. Then, 3 ml/T75 flask or 1 ml/T25 flask of fresh dedicated Trypsin/EDTA solution (from Lonza) was added and the flasks were incubated for 3-4 minutes at RT until ˜90% cells were detached. The Trypsin/EDTA solution was then neutralized by addition of 6 ml/T75 flask or 3 ml/T25 flask of full PGM-2 growth medium. Cells were collected in 50 ml tubes and centrifuged 10 minutes at 300 g. The supernatant was removed and the cells were resuspended in 3 ml fresh medium. Cells were then counted using a haemacytometer slide after being diluted 1:2 in trypan blue (SIGMA). For sub-culturing, cells were seeded in new T75 flasks at a density of 9,000 cells/cm^2 containing 15 ml fresh growth medium. Alternatively, the cells were seeded in 96-well culture plates at a density of 10,000 cells/well for the cell treatments.
HPrAD-vis cells: HPrAD-vis passaged once were seeded in 96-well plates as described above (10000cells/well in 100 μl medium) and allowed to settle overnight at 37° C., 5% CO2. Following day, adipogenic differentiation was induced by addition of 100 μl/well differentiation medium and incubated for 5 days. Adipogenic differentiation was verified by microscopic evaluation, addition of adipored reagents and fluorescent measurement at Ex485 nm/Em572 nm. In the morning of day 6, test and reference items were prepared as described above. Cells' medium was replaced with 90 μl fresh differentiation medium. […] Staurosporine (1 μM) and 0.2% DMSO were used as controls. Plates were incubated at 37° C. 5% CO2 for 2, 6 and 24 hours. Following incubation, cell viability was determined using the CellTiter-Gg® viability reagent (Promega) with reading of plates for luminescence. […]

C[N+](C)(C)CCCCCn1c2ccc(Br)cc2c2cc(Br)ccc21.[Cl-] [RZL-012, 5-(3,6-dibromo-9H-carbazol-9-yl)-N,N,N-trimethylpentan-1-aminium chloride]
IC50 (2 h, read-out: IC50 of RZL-12 in the presence of Collagenase, Collagenase 0, 2 h incubation): 31.4 µM | IC50 (2 h, read-out: IC50 of RZL-12 in the presence of Collagenase, Collagenase 0.1 μM, 2 h incubation): 32.4 µM | IC50 (2 h, read-out: IC50 of RZL-12 in the presence of Collagenase, Collagenase 0.3 μM, 2 h incubation): 35.7 µM | IC50 (2 h, read-out: IC50 of RZL-12 in the presence of Collagenase, Collagenase 1 μM, 2 h incubation): 32.6 µM | IC50 (2 h, read-out: IC50 of RZL-12 in the presence of Collagenase, Collagenase 3 μM, 2 h incubation): ~31.2 µM | IC50 (2 h, read-out: IC50 of RZL-12 in the presence of Collagenase, Collagenase 10 μM, 2 h incubation): 71.3 µM | IC50 (2 h, read-out: IC50 of RZL-12 in the presence of Collagenase, Collagenase 30 μM, 2 h incubation): ~93.2 µM | IC50 (6 h, read-out: IC50 of RZL-12 in the presence of Collagenase, Collagenase 0, 6 h incubation): 34.6 µM | IC50 (6 h, read-out: IC50 of RZL-12 in the presence of Collagenase, Collagenase 0.1 μM, 6 h incubation): 44.3 µM | IC50 (6 h, read-out: IC50 of RZL-12 in the presence of Collagenase, Collagenase 0.3 μM, 6 h incubation): 45.1 µM | IC50 (6 h, read-out: IC50 of RZL-12 in the presence of Collagenase, Collagenase 1 μM, 6 h incubation): 44.2 µM | IC50 (6 h, read-out: IC50 of RZL-12 in the presence of Collagenase, Collagenase 3 μM, 6 h incubation): ~30.5 µM | IC50 (6 h, read-out: IC50 of RZL-12 in the presence of Collagenase, Collagenase 10 μM, 6 h incubation): 36.5 µM | IC50 (6 h, read-out: IC50 of RZL-12 in the presence of Collagenase, Collagenase 30 μM, 6 h incubation): 38.8 µM | IC50 (24 h, read-out: IC50 of RZL-12 in the presence of Collagenase, Collagenase 0, 24 h incubation): 22.8 µM | IC50 (24 h, read-out: IC50 of RZL-12 in the presence of Collagenase, Collagenase 0.1 μM, 24 h incubation): 38 µM | IC50 (24 h, read-out: IC50 of RZL-12 in the presence of Collagenase, Collagenase 0.3 μM, 24 h incubation): 38.5 µM | IC50 (24 h, read-out: IC50 of RZL-12 in the presence of Collagenase, Collagenase 1 μM, 24 h incubation): ~36.1 µM | IC50 (24 h, read-out: IC50 of RZL-12 in the presence of Collagenase, Collagenase 3 μM, 24 h incubation): 22.9 µM | IC50 (24 h, read-out: IC50 of RZL-12 in the presence of Collagenase, Collagenase 10 μM, 24 h incubation): 28.8 µM | IC50 (24 h, read-out: IC50 of RZL-12 in the presence of Collagenase, Collagenase 30 μM, 24 h incubation): 28.8 µM | IC50 (read-out: IC50 when combined, RZL-012 and collagenase combined): 0.02 µM | Average RZL-012 and collagenase induced cell death (% vs untreated cells) (RZL12 0.01 μM, Collagenase 0, 2 h of incubation): 10.0% | Average RZL-012 and collagenase induced cell death (% vs untreated cells) (RZL12 0.01 μM, Collagenase 0.1 μM, 2 h of incubation): 6.5% | Average RZL-012 and collagenase induced cell death (% vs untreated cells) (RZL12 0.01 μM, Collagenase 0.3 μM, 2 h of incubation): 0.8% | Average RZL-012 and collagenase induced cell death (% vs untreated cells) (RZL12 0.01 μM, Collagenase 1 μM, 2 h of incubation): 5.3% | Average RZL-012 and collagenase induced cell death (% vs untreated cells) (RZL12 0.01 μM, Collagenase 3 μM, 2 h of incubation): 20.5% | Average RZL-012 and collagenase induced cell death (% vs untreated cells) (RZL12 0.01 μM, Collagenase 10 μM, 2 h of incubation): 30.3% | Average RZL-012 and collagenase induced cell death (% vs untreated cells) (RZL12 0.01 μM, Collagenase 30 μM, 2 h of incubation): 46.4% | Average RZL-012 and collagenase induced cell death (% vs untreated cells) (RZL12 1 μM, Collagenase 0, 2 h of incubation): 7.0% | Average RZL-012 and collagenase induced cell death (% vs untreated cells) (RZL12 1 μM, Collagenase 0, 24 h of incubation): 4.88% | Average RZL-012 and collagenase induced cell death (% vs untreated cells) (RZL12 1 μM, Collagenase 0.1 μM, 2 h of incubation): 6.5% | Average RZL-012 and collagenase induced cell death (% vs untreated cells) (RZL12 1 μM, Collagenase 0.1 μM, 24 h of incubation): 8.18% | Average RZL-012 and collagenase induced cell death (% vs untreated cells) (RZL12 1 μM, Collagenase 0.3 μM, 2 h of incubation): 3.0% | Average RZL-012 and collagenase induced cell death (% vs untreated cells) (RZL12 1 μM, Collagenase 0.3 μM, 24 h of incubation): −0.25% | Average RZL-012 and collagenase induced cell death (% vs untreated cells) (RZL12 1 μM, Collagenase 1 μM, 2 h of incubation): 2.0% | Average RZL-012 and collagenase induced cell death (% vs untreated cells) (RZL12 1 μM, Collagenase 1 μM, 24 h of incubation): 16.48% | Average RZL-012 and collagenase induced cell death (% vs untreated cells) (RZL12 1 μM, Collagenase 3 μM, 2 h of incubation): 19.2% | Average RZL-012 and collagenase induced cell death (% vs untreated cells) (RZL12 1 μM, Collagenase 3 μM, 24 h of incubation): 28.74% | Average RZL-012 and collagenase induced cell death (% vs untreated cells) (RZL12 1 μM, Collagenase 10 μM, 2 h of incubation): 29.9% | Average RZL-012 and collagenase induced cell death (% vs untreated cells) (RZL12 1 μM, Collagenase 10 μM, 24 h of incubation): 64.29% | Average RZL-012 and collagenase induced cell death (% vs untreated cells) (RZL12 1 μM, Collagenase 30 μM, 2 h of incubation): 48.0% | Average RZL-012 and collagenase induced cell death (% vs untreated cells) (RZL12 1 μM, Collagenase 30 μM, 24 h of incubation): 78.45% | Average RZL-012 and collagenase induced cell death (% vs untreated cells) (RZL12 3 μM, Collagenase 0, 2 h of incubation): 5.9% | Average RZL-012 and collagenase induced cell death (% vs untreated cells) (RZL12 3 μM, Collagenase 0, 24 h of incubation): 6.40% | Average RZL-012 and collagenase induced cell death (% vs untreated cells) (RZL12 3 μM, Collagenase 0.1 μM, 2 h of incubation): −1.6% | Average RZL-012 and collagenase induced cell death (% vs untreated cells) (RZL12 3 μM, Collagenase 0.1 μM, 24 h of incubation): 3.62% | Average RZL-012 and collagenase induced cell death (% vs untreated cells) (RZL12 3 μM, Collagenase 0.3 μM, 2 h of incubation): 1.1% | Average RZL-012 and collagenase induced cell death (% vs untreated cells) (RZL12 3 μM, Collagenase 0.3 μM, 24 h of incubation): 2.09% | Average RZL-012 and collagenase induced cell death (% vs untreated cells) (RZL12 3 μM, Collagenase 1 μM, 2 h of incubation): 6.1% | Average RZL-012 and collagenase induced cell death (% vs untreated cells) (RZL12 3 μM, Collagenase 1 μM, 24 h of incubation): 16.21% | Average RZL-012 and collagenase induced cell death (% vs untreated cells) (RZL12 3 μM, Collagenase 3 μM, 2 h of incubation): 18.0% | Average RZL-012 and collagenase induced cell death (% vs untreated cells) (RZL12 3 μM, Collagenase 3 μM, 24 h of incubation): 27.36% | Average RZL-012 and collagenase induced cell death (% vs untreated cells) (RZL12 3 μM, Collagenase 10 μM, 2 h of incubation): 26.4% | Average RZL-012 and collagenase induced cell death (% vs untreated cells) (RZL12 3 μM, Collagenase 10 μM, 24 h of incubation): 63.40% | Average RZL-012 and collagenase induced cell death (% vs untreated cells) (RZL12 3 μM, Collagenase 30 μM, 2 h of incubation): 47.6% | Average RZL-012 and collagenase induced cell death (% vs untreated cells) (RZL12 3 μM, Collagenase 30 μM, 24 h of incubation): 77.35%
